How the values were obtained:
[1] = Static CytoSorb adsorption setup (spiked plasma with CytoSorb resin); assay type: in vitro ADME, human; conditions: plasma:resin 1:10 v/v, 60 min, 37 °C, n = 3
Description: Plasma was obtained by centrifugation (3500× g, 10 min) from citrate-anticoagulated human whole blood and spiked with immunosuppressants to defined target concentrations (Table 1). To evaluate adsorption, plasma was incubated with the CytoSorb resin at 1:10 (v/v) for 60 min at 37 °C on a roller mixer. In parallel, a separate aliquot of spiked plasma was incubated with autologous blood cells (1:1, v/v) to assess cellular uptake of immunosuppressants. Untreated spiked plasma served as control (Figure 1a). Samples were collected before and after incubation for subsequent analysis.
(§1) MPA was determined using a validated test for the Cobas c311 autoanalyzer from Roche (Basel, Switzerland). 6-MP was quantified by reversed-phase HPLC [17, 18]. After precipitation of the plasma sample with ice cold methanol in ratio 1:5, 30 µL of the supernatant was injected into a Nukleosil 100-5C18, 4.6 × 150 mm C18 column (Macherey-Nagel, Düren, Germany), combined with an Onyx Monolithic C18, 4.6 × 5 mm guard column (Phenomenex, Torrance, CA, USA). The mobile phase consisted of methanol and deionised water (50:50) which was continuously pumped with a flow rate of 0.8 mL/min for five minutes. 6-MP was quantified with a retention time of 2.3 min using an UV detector (325 nm). The quantification of cytokines was determined by Magnetic Luminex Assay with a human premixed Multi Analyte Kit (R&D Systems, Minneapolis, MN, USA). The urea, albumin and total protein levels were measured with the cobas c311 automated analyzer with corresponding test kits from Roche (Penzberg, Germany).

[2] = Determination of protein binding by ultrafiltration; assay type: in vitro ADME; conditions: human plasma, ultrafiltration 30 kDa cutoff
Description: To assess protein binding of the tested immunosuppressants, human plasma was spiked with the respective drugs and urea as a freely diffusible control. Samples were then subjected to ultrafiltration (30 kDa cutoff, 15,000× g, 20 min). The protein-bound fraction was calculated using the following formula:(1) protein binding %= 1−Cfiltrate/Cplasma where cplasma is the concentration of each compound in plasma and cfiltrate is its concentration in the ultrafiltrate.

[3] = Dynamic CytoSorb adsorption setup (scaled-down circuit, whole blood); assay type: in vitro ADME, human; conditions: for mean clearance rate: CytoSorb treatment, at 15 min, Equation (2); for adsorption (removal) by CytoSorb: dynamic ex vivo circuit, 400 mL human whole blood, 30 mL cartridge, 4 h
Description: To quantify the depletion of selected immunosuppressants during CytoSorb treatment under dynamic conditions, a scaled-down extracorporeal circulation system was established, consisting of a 30 mL CytoSorb adsorption cartridge and a pediatric tubing set filled with 400 mL of freshly drawn human whole blood (Figure 1b). To distinguish between drug removal by adsorption versus uptake by blood components, a control circuit with an identical setup but an empty cartridge was run in parallel for each experiment. Whole blood from two healthy donors of the same blood group was pooled, anticoagulated with citrate (final concentration: 7 mM), spiked with the immunosuppressants, and divided into two 400 mL blood bags.
Prior to circulation, the entire system was flushed with isotonic saline. Then, one of the prepared blood bags (Group 1 or Group 2) was connected to the circuit and circulated for 30 min at 37 °C without the adsorber cartridge to allow for equilibration. Following this equilibration, a baseline sample (0 min) was collected, and the adsorption column was introduced into the circuit. In the adsorption circuit, samples were collected at 15, 30, 60, 120, 180 and 240 min. In the control circuit, samples were taken at baseline and after 240 min. All blood samples were centrifuged (3500× g, 10 min) to separate plasma, which was stored at −80 °C until further analysis.
(§2) The clearance (C) of each compound during both the dialysis and the dynamic CytoSorb experiments was calculated using the first-order exponential decay formula:(2) C = V/t ×lnCo/Ct where V = plasma volume, t = treatment time [min], C0 = concentration before starting treatment, Ct = concentration at time t.
as §1

[4] = Removal of immunosuppressants by chronic dialysis (ex vivo, plasma); assay type: in vitro ADME, human
Description: (§3) To evaluate the effect of dialysis under clinically relevant conditions, both chronic and acute dialysis settings were simulated using standard Fresenius systems. In all experiments, 1.5 L of citrated human plasma was dialyzed against calcium-free dialysate at 37 °C.
(§4) Prior to circulation, the systems were flushed with 2 L of isotonic saline. Plasma samples were collected at defined time points (15–480 min) and analyzed for immunosuppressants, urea, and albumin. Chronic dialysis represents intermittent high-flow conditions, whereas acute dialysis mimics continuous low-flow therapy used in critically ill patients.
as §2

[5] = Whole blood cell model: immunosuppressant serum levels after CytoSorb treatment; assay type: in vitro ADME, human; conditions: overnight incubation, p < 0.05, n = 6
Description: To investigate whether the in vitro depletion of immunosuppressants by CytoSorb affects immunosuppression, a whole blood cell model was established. The experiment was conducted over two consecutive days. A graphical overview of the setup is provided in Supplementary Figure S1. On day one, freshly drawn human whole blood was incubated overnight at 37 °C with various immunosuppressants, either individually or in combination, to allow for sufficient drug exposure prior to CytoSorb treatment.
Subsequently, the blood was split into two experimental groups: one was treated with CytoSorb in a batch setup, and the other served as an untreated control, incubated under identical conditions at 37 °C on a roller mixer. Following treatment, all samples were allowed to rest for 4 h. After the resting period, blood samples were stimulated with either lipopolysaccharide (LPS) E. coli or with anti-CD3 antibodies. LPS primarily activates monocytes and neutrophils via the TLR4/CD14/MD2 complex, while anti-CD3 specifically stimulates T cells. The stimulation was carried out for 4 h at 37 °C on a roller mixer. Thereafter, the blood samples were centrifuged, and the plasma was collected and stored at −80 °C. Leukocyte activation was assessed by quantification of IL-1β, IL-6, IL-8, and TNF-α.
as §1

human whole blood [6] = experiment: Whole blood cell model: LPS stimulation, cytokine measurement; assay type: cell-based; conditions: + CytoSorb
Description: (§5) Subsequently, the blood was split into two experimental groups: one was treated with CytoSorb in a batch setup, and the other served as an untreated control, incubated under identical conditions at 37 °C on a roller mixer. Following treatment, all samples were allowed to rest for 4 h. After the resting period, blood samples were stimulated with either lipopolysaccharide (LPS) E. coli or with anti-CD3 antibodies. […] The stimulation was carried out for 4 h at 37 °C on a roller mixer. Thereafter, the blood samples were centrifuged, and the plasma was collected and stored at −80 °C. Leukocyte activation was assessed by quantification of IL-1β, IL-6, IL-8, and TNF-α.

human whole blood [7] = experiment: Whole blood cell model: anti-CD3 stimulation, cytokine measurement; assay type: cell-based; conditions: + Anti-CD3, + CytoSorb
Description: as §5

[8] = set-up: method as in earlier work; conditions: literature; ref 23 (methylprednisolone), 24 (mycophenolate), 41 (6-mercaptopurine); cited from earlier work
[9] = literature; ref 21 (6-MP), 22 (CsA), 23 (MPR), 24 (MPA), 25 (TAC); cited from earlier work
[10] = Removal of immunosuppressants by acute dialysis (CVVHD, ex vivo, plasma); assay type: in vitro ADME, human
Description: as §3, §4, §2

SMILES: COc1c(C)c2c(c(O)c1C/C=C(\C)CCC(=O)O)C(=O)OC2 [MPA, mycophenolic acid]
- reduction of level in plasma by CytoSorb [1]: 37 ± 6%
- fraction unbound ([2]; read-out: Protein Binding in Plasma, Current Study (converted)): 0.021
- mean clearance rate [3]: approximately 44 mL/min
- adsorption (removal) by CytoSorb [3]: 76 ± 2%
- removal by dialysis (in words) [4]: only slightly reduced
- reduction in serum level following CytoSorb treatment (in words) [5]: significant reduction
- IL-1β serum level (human whole blood [6]; test 1): 992 pg/mL
- IL-6 serum level (human whole blood [6]; test 1): 3303 pg/mL
- IL-8 serum level (human whole blood [6]; test 1): 4068 pg/mL
- TNF-α serum level (human whole blood [6]; test 1): 3390 pg/mL
- IL-1β serum level (human whole blood [6]; test 2): 112 pg/mL
- IL-6 serum level (human whole blood [6]; test 2): 627 pg/mL
- IL-8 serum level (human whole blood [6]; test 2): 2855 pg/mL
- TNF-α serum level (human whole blood [6]; test 2): 1274 pg/mL
- IL-1β serum level (human whole blood [6]; test 3): 1465 pg/mL
- IL-6 serum level (human whole blood [6]; test 3): 16855 pg/mL
- IL-8 serum level (human whole blood [6]; test 3): 15529 pg/mL
- TNF-α serum level (human whole blood [6]; test 3): 720 pg/mL
- IL-1β serum level (human whole blood [7]; test 1): 0 pg/mL
- IL-6 serum level (human whole blood [7]; test 1): 4 pg/mL
- IL-8 serum level (human whole blood [7]; test 1): 564 pg/mL
- TNF-α serum level (human whole blood [7]; test 1): 107 pg/mL
- IL-1β serum level (human whole blood [7]; test 2): 115 pg/mL
- IL-6 serum level (human whole blood [7]; test 2): 645 pg/mL
- IL-8 serum level (human whole blood [7]; test 2): 3704 pg/mL
- TNF-α serum level (human whole blood [7]; test 2): 109 pg/mL
- IL-1β serum level (human whole blood [7]; test 3): 170 pg/mL
- IL-6 serum level (human whole blood [7]; test 3): 952 pg/mL
- IL-8 serum level (human whole blood [7]; test 3): 4924 pg/mL
- TNF-α serum level (human whole blood [7]; test 3): 55 pg/mL
- volume of distribution (Vd) [8]: ≈ 3.6 L/kg
- Protein Binding in Plasma, Reference [9]: 97 [24] %

SMILES: C=CC[C@@H]1/C=C(\C)C[C@H](C)C[C@H](OC)[C@H]2O[C@@](O)(C(=O)C(=O)N3CCCC[C@H]3C(=O)O[C@H](/C(C)=C/[C@@H]3CC[C@@H](O)[C@H](OC)C3)[C@H](C)[C@@H](O)CC1=O)[C@H](C)C[C@@H]2OC [TAC, tacrolimus]
- reduction of level in plasma by CytoSorb [1]: not affected
- Protein Binding in Plasma, Current Study [2]: 97.9 ± 10.9%
- mean clearance rate [3]: around 15 mL/min
- reduction of serum levels by CytoSorb (abstract) ([3]; as stated in the abstract, experiment not specified): no significant effect
- adsorption (removal) by CytoSorb [3]: 18 ± 16%
- removal by dialysis (in words) [4]: not effectively removed
- clearance ([4]; throughout): below 2 mL/min
- removal by dialysis (in words) [10]: not effectively removed
- reduction in serum level following CytoSorb treatment (in words) [5]: no significant adsorption
- IL-1β serum level (human whole blood [6]; test 1): 412 pg/mL
- IL-6 serum level (human whole blood [6]; test 1): 7095 pg/mL
- IL-8 serum level (human whole blood [6]; test 1): 7756 pg/mL
- TNF-α serum level (human whole blood [6]; test 1): 1967 pg/mL
- IL-1β serum level (human whole blood [6]; test 2): 62 pg/mL
- IL-6 serum level (human whole blood [6]; test 2): 584 pg/mL
- IL-8 serum level (human whole blood [6]; test 2): 2388 pg/mL
- TNF-α serum level (human whole blood [6]; test 2): 1337 pg/mL
- IL-1β serum level (human whole blood [6]; test 3): 646 pg/mL
- IL-6 serum level (human whole blood [6]; test 3): 23302 pg/mL
- IL-8 serum level (human whole blood [6]; test 3): 50044 pg/mL
- TNF-α serum level (human whole blood [6]; test 3): 690 pg/mL
- IL-1β serum level (human whole blood [7]; test 1): 18 pg/mL
- IL-6 serum level (human whole blood [7]; test 1): 28 pg/mL
- IL-8 serum level (human whole blood [7]; test 1): 1654 pg/mL
- TNF-α serum level (human whole blood [7]; test 1): 38 pg/mL
- IL-1β serum level (human whole blood [7]; test 2): 93 pg/mL
- IL-6 serum level (human whole blood [7]; test 2): 773 pg/mL
- IL-8 serum level (human whole blood [7]; test 2): 8613 pg/mL
- TNF-α serum level (human whole blood [7]; test 2): 53 pg/mL
- IL-1β serum level (human whole blood [7]; test 3): 268 pg/mL
- IL-6 serum level (human whole blood [7]; test 3): 2598 pg/mL
- IL-8 serum level (human whole blood [7]; test 3): 25920 pg/mL
- TNF-α serum level (human whole blood [7]; test 3): 85 pg/mL
